Laboratory results as given in paper PMC7746546, “The JAK1 Selective Inhibitor ABT 317 Blocks Signaling Through Interferon-γ and Common γ Chain Cytokine Receptors to Reverse Autoimmune Diabetes in NOD Mice” (Frontiers in Immunology, 2020).

Columns and labels:
[1] = tested on: IL-21 signaling in T cells; assay: IL-21-induced pSTAT3 in spleen T cells in vitro (flow cytometry); assay type: cell-based, mouse; settings: 0.05, 0.2, 1 and 2 µM, CD8+ and CD4+ T cells, Fig S2K-L
Experimental: […] […] For use in vivo, 3 mg/kg or 10 mg/kg of drug was delivered twice daily by oral gavage in the vehicle 0.5% hydroxypropyl methylcellulose in sterile H2O. The JAK1/JAK2 inhibitor baricitinib was purchased from SelleckChem and used at a concentration of 3 mg/kg in vivo made up in a vehicle of 0.5% methyl cellulose.
Single-cell suspensions from the spleens were prepared by mechanical tissue disruption through a 70 μm cell strainer followed by red cell lysis. Cells were resuspended in FACS buffer (0.5% FCS in PBS) and filtered through a nylon mesh.
Whole islets were treated with vehicle or ABT 317 for 1 h before culture with 10 ng/ml IFN-γ for 72 h, and analysis by flow cytometry. Splenocytes and whole blood were stimulated with 100 U/ml IL-2, 50 ng/ml IL-7, 30 ng/ml IL-15, 25 ng/ml IL-21, or 40 ng/ml GM-CSF for 30 min at 37°C. Red blood cells were lysed (155 mmol/L NH4Cl, 10 mmol/L Tris-HCl, pH 7.5). Leukocytes were analyzed by flow cytometry.
Mouse islet cells were stained with anti-CD45 and biotinylated anti-H2Kd (BD Pharmingen) followed by streptavidin-allophycocyanin (BioLegend). β‐cells were identified by autofluorescence ([23]). Dead cells were excluded using propidium iodide. […] Data were collected on the FACS Fortessa cell analyzer (BD Bioscience, San Jose, CA, USA) and were analyzed using FlowJo Software version 10 (TreeStar, Inc, Ashland, OR, USA).

[2] = cited from earlier work
[3] = set-up: method as in PMID 29481660; settings: participants with diabetic kidney disease, phase 2 trial; cited from earlier work
[4] = tested on: autoimmune insulitis in NOD mice; set-up: method as in PMID 28292965; settings: cited from earlier work
[5] = tested on: IFN-γ mediated MHC class I upregulation on β cells; set-up: method as in PMID 28292965; settings: cited from earlier work
[6] = tested on: JAK2-dependent cytokines IL-3 and GM-CSF; settings: cited from earlier work
JAK1 over JAK3 = tested on: JAK1 over JAK3; set-up: method as in PMID 30806706, PMID 27390150; settings: cited from earlier work
JAK1 over JAK2 = tested on: JAK1 over JAK2; set-up: method as in PMID 30806706, PMID 27390150; settings: cited from earlier work

C[C@@H]1CCN(C(=O)CC#N)C[C@@H]1N(C)c1ncnc2[nH]ccc12 [tofacitinib]
blocking IL-21 signaling through pSTAT3, dose dependence [1]: similar

O=C(Nc1nc2cccc(-c3ccc(CN4CCS(=O)(=O)CC4)cc3)n2n1)C1CC1 [filgotinib]
anemia ([2]; rheumatoid arthritis patients): did not result in anemia

CCS(=O)(=O)N1CC(CC#N)(n2cc(-c3ncnc4[nH]ccc34)cn2)C1 [baricitinib]
blocking IL-21 signaling through pSTAT3, dose dependence [1]: similar
neutropenia in clinical trials [2]: neutropenia has been found
albuminuria [3]: reduction

Cc1cc(Nc2nc(N[C@@H](C)c3ncc(F)cn3)ncc2Cl)n[nH]1 [AZD1480]
established autoimmune insulitis [4]: reversed
immune cell infiltration into pancreatic islets [4]: reduced
IFN-γ mediated MHC class I upregulation on β cells [5]: blocked

CC[C@@H]1CN(C(=O)NCC(F)(F)F)C[C@@H]1c1cnc2cnc3[nH]ccc3n12 [upadacitinib]
effect on JAK2-dependent cytokines IL-3 and GM-CSF [6]: inhibits
selectivity for JAK1 over JAK3 (JAK1 over JAK3): 58 fold
selectivity for JAK1 over JAK2 (JAK1 over JAK2): 74 fold
